In brackets after ≈: the same amount, converted by molar mass. Activity calls are given as the source filed them. The rule behind the calls is not given here.
Key:
Staphylococcus aureus [1] = test: Bactericidal activity against methicillin-resistant Staphylococcus aureus SA2 by microdilution technique; type: functional
Staphylococcus aureus [2] = test: Bactericidal activity against vancomycin-intermediate Staphylococcus aureus by microdilution technique; type: functional
[3] = Half life in rabbit plasma at 58 mg/kg infused every 12 hrs for 4 days; type: ADME, organism-based, Oryctolagus cuniculus; set-up: dose 58 mg/kg; settings: iv
Staphylococcus aureus [4] = test: Bactericidal activity against methicillin-resistant Staphylococcus aureus SA2 in rabbit endocarditis model assessed as growth inhibition at 58 mg/kg infused every 12 hrs for 4 days measured after 48 hrs; type: functional; settings: read-out: GI
Staphylococcus aureus [5] = test: Bactericidal activity against vancomycin-intermediate Staphylococcus aureus in rabbit endocarditis model assessed as growth inhibition at 58 mg/kg infused every 12 hrs for 4 days measured after 48 hrs; type: functional; settings: read-out: GI
[6] = AUC in rabbit plasma at 58 mg/kg infused every 12 hrs for 4 days; type: ADME, organism-based, Oryctolagus cuniculus; set-up: dose 58 mg/kg; settings: iv
Staphylococcus aureus [7] = test: Bactericidal activity against methicillin-resistant Staphylococcus aureus SA2 in rabbit endocarditis model assessed per gram of aortic vegetation at 58 mg/kg infused every 12 hrs for 4 days measured after 48 hrs; type: functional, Aorta
Staphylococcus aureus [8] = test: Bactericidal activity against vancomycin-intermediate Staphylococcus aureus in rabbit endocarditis model assessed per gram of aortic vegetation at 58 mg/kg infused every 12 hrs for 4 days measured after 48 hrs; type: functional, Aorta
[9] = Cmax in rabbit plasma at 58 mg/kg infused every 12 hrs for 4 days; type: ADME, organism-based, Oryctolagus cuniculus; set-up: dose 58 mg/kg; settings: iv
Citrobacter freundii = test: Antibacterial activity against Citrobacter freundii; type: functional, organism-based
Staphylococcus aureus [10] = test: Bactericidal activity against vancomycin-intermediate Staphylococcus aureus in rabbit endocarditis model at 4 times MIC after 48 hrs; type: functional, organism-based
[11] = Protein binding in rabbit plasma; type: ADME, cell-free, Oryctolagus cuniculus; settings: read-out: PPB
Staphylococcus aureus [12] = test: %T>MIC in methicillin-resistant Staphylococcus aureus in mouse thigh/lung infection model; type: ADME, organism-based; settings: in vivo
Moraxella catarrhalis = test: Antibacterial activity against Moraxella catarrhalis; type: functional, organism-based
[13] = Protein binding in human plasma; type: ADME, cell-free; settings: read-out: PPB
Klebsiella pneumoniae = test: Antibacterial activity against Klebsiella pneumoniae; type: functional, organism-based
Staphylococcus aureus [14] = test: Bactericidal activity against methicillin-resistant Staphylococcus aureus SA2 in rabbit endocarditis model at 4 times MIC after 48 hrs; type: functional, organism-based
Staphylococcus aureus [15] = test: %T>MIC in vancomycin-intermediate Staphylococcus aureus in rabbit endocarditis model; settings: in vivo
Pseudomonas aeruginosa = test: Antibacterial activity against Pseudomonas aeruginosa; type: functional
Escherichia coli = test: Antibacterial activity against Escherichia coli; type: functional, organism-based
Staphylococcus aureus [16] = test: %T>MIC in methicillin-resistant Staphylococcus aureus SA2 in rabbit endocarditis model; settings: in vivo
Morganella morganii = test: Antibacterial activity against Morganella morganii; type: functional, organism-based
Haemophilus influenzae = test: Antibacterial activity against Haemophilus influenzae; type: functional, organism-based
Neisseria meningitidis = test: Antibacterial activity against Neisseria meningitidis; type: functional, organism-based
Oryctolagus cuniculus = test: Plasma concentration in rabbit at 58 mg/kg infused every 12 hrs for 4 days; type: ADME, organism-based; set-up: dose 58 mg/kg; settings: in vivo, iv

## COc1cccc(OC)c1C(=O)N[C@@H]1C(=O)N2[C@@H]1SC(C)(C)[C@@H]2C(=O)O [METHICILLIN]
Staphylococcus aureus [1]
  MIC: 128 µg/mL (≈ 336 µM)
Staphylococcus aureus [2]
  MIC: > 1020 µg/mL

## CC(=O)NC[C@H]1CN(c2ccc(N3CCOCC3)c(F)c2)C(=O)O1 [LINEZOLID]
[3]
  half-life: 3.3 h
Staphylococcus aureus [4]
  inhibition in vivo at 58 mg/kg: 0%
Staphylococcus aureus [5]
  inhibition in vivo at 58 mg/kg: 0%
Staphylococcus aureus [1]
  MBC: > 64 µg/mL
[6]
  AUC: 137 µg·h/mL
Staphylococcus aureus [7]
  log10cfu: 7.1
Staphylococcus aureus [8]
  log10cfu: 6.9
Staphylococcus aureus [2]
  MBC: 16 µg/mL (≈ 47.4 µM)
  MIC: 1 µg/mL (≈ 2.96 µM)
[9]
  Cmax: 19600 ng/mL

## CCO/N=C(\C(=O)N[C@@H]1C(=O)N2C(C(=O)[O-])=C(Sc3nc(-c4cc[n+](C)cc4)cs3)CS[C@H]12)c1nsc(NP(=O)(O)O)n1 [CEFTAROLINE FOSAMIL]
Citrobacter freundii
  Activity: Active
Staphylococcus aureus [10]
  Activity: Active
Staphylococcus aureus [4]
  inhibition in vivo at 58 mg/kg: 90%
[11]
  fraction unbound: > 0.8
Staphylococcus aureus [12]
  T>MIC: 33%
Moraxella catarrhalis
  Activity: Active
[13]
  fraction unbound: > 0.8
Klebsiella pneumoniae
  Activity: Active
Staphylococcus aureus [5]
  inhibition in vivo at 58 mg/kg: 60%
Staphylococcus aureus [1]
  MBC: 1 µg/mL (≈ 1.46 µM)
  MIC: 1 µg/mL (≈ 1.46 µM)
Staphylococcus aureus [14]
  Activity: Active
Staphylococcus aureus [15]
  T>MIC: 62%
Pseudomonas aeruginosa
  MIC90: > 32 µg/mL
Escherichia coli
  Activity: Active
Staphylococcus aureus [16]
  T>MIC: 75%
Morganella morganii
  Activity: Active
Staphylococcus aureus [7]
  log10cfu: 2.5
Haemophilus influenzae
  Activity: Active
Staphylococcus aureus [8]
  log10cfu: 3
Staphylococcus aureus [2]
  MBC: 2 µg/mL (≈ 2.92 µM)
  MIC: 2 µg/mL (≈ 2.92 µM)
Neisseria meningitidis
  Activity: Active

## CN[C@H](CC(C)C)C(=O)N[C@H]1C(=O)N[C@@H](CC(N)=O)C(=O)N[C@H]2C(=O)N[C@H]3C(=O)N[C@H](C(=O)N[C@H](C(=O)O)c4cc(O)cc(O)c4-c4cc3ccc4O)[C@H](O)c3ccc(c(Cl)c3)Oc3cc2cc(c3O[C@@H]2O[C@H](CO)[C@@H](O)[C@H](O)[C@H]2O[C@H]2C[C@](C)(N)[C@H](O)[C@H](C)O2)Oc2ccc(cc2Cl)[C@H]1O [VANCOMYCIN]
Staphylococcus aureus [4]
  inhibition in vivo at 58 mg/kg: 67%
Oryctolagus cuniculus
  Cp: 23100 ng/mL
Staphylococcus aureus [5]
  inhibition in vivo at 58 mg/kg: 0%
Staphylococcus aureus [1]
  MBC: 2 µg/mL (≈ 1.38 µM)
Staphylococcus aureus [7]
  log10cfu: 2.7
Staphylococcus aureus [8]
  log10cfu: 6.7
Staphylococcus aureus [2]
  MBC: 8 µg/mL (≈ 5.52 µM)
